The source of these data is ChEMBL document CHEMBL1155278, “3,4-Diaryl-isoxazoles and -imidazoles as potent dual inhibitors of p38alpha mitogen activated protein kinase and casein kinase 1delta” (J Med Chem, 2009).

As usually defined, the IC50 is the midpoint of a concentration-inhibition curve. One may read the inhibition as the percentage by which the read-out fell short of the control. Higher therefore signals a strong effect.

Experiment [1] addresses T1, Casein kinase I isoform delta (Rattus norvegicus, UniProt Q06486). Description: Inhibition of GST-fused rat CK1delta by Cherenkov counting in presence of 20 uM ATP.
Experiment [2] deals with T2, Casein kinase I isoform delta (Homo sapiens, UniProt P48730). As to the kind of experiment: Inhibition of recombinant CK1delta kinase domain by Cherenkov counting.
Target sequence in this assay (P48730 whole entry, the tested form may be a part, canonical isoform): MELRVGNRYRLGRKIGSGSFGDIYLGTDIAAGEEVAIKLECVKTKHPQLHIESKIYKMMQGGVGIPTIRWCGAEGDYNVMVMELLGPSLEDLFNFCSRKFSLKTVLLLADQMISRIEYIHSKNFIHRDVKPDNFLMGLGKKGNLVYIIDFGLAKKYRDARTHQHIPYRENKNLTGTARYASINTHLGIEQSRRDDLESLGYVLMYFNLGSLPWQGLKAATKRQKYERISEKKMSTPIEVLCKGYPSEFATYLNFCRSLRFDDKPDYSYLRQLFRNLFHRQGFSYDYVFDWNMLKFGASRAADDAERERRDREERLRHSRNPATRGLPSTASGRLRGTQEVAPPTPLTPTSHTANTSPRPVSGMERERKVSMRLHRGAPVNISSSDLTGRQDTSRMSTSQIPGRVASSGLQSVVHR
Experiment [3] addresses T3, Mitogen-activated protein kinase 14 (Homo sapiens, UniProt Q16539). As to the kind of experiment: Inhibition of p38alpha by Cherenkov counting.
A short description of experiment [4]: Cell cycle arrest in human AC1-M88 cells assessed as accumulation at S phase at 3.32 uM after 48 hrs by propidium iodide staining-based FACS analysis. In kind it is functional. On the technique in general: A flow cytometer gives signals particle by particle.
The nature of experiment [5]: Cell cycle arrest in human AC1-M88 cells assessed as accumulation at G1 phase at 3.32 uM after 48 hrs by propidium iodide staining-based FACS analysis. In kind it is functional.
Experiment [6] is described as follows: Cell cycle arrest in human AC1-M88 cells assessed as accumulation at subG1 phase at 3.32 uM after 48 hrs by propidium iodide staining-based FACS analysis. In kind it is functional.
Experiment [7] can be described thus: Cell cycle arrest in human AC1-M88 cells assessed as accumulation at G2 phase at 3.32 uM after 48 hrs by propidium iodide staining-based FACS analysis. In kind it is functional.
For experiment [8], the target named is T2, Casein kinase I isoform delta. Description: Inhibition of GST-fused human full length CK1delta expressed in Escherichia coli at 1 uM.
Target sequence in this assay (P48730 whole entry, looked up, the tested form may be a part, canonical isoform): as the sequence (P48730 whole entry, the tested form may be a part, canonical isoform) above
Experiment [9] deals with Casein kinase I isoform delta (Oryctolagus cuniculus, UniProt P81123). Description: Inhibition of rabbit skeletal muscle CK1delta by liquid scintillation counting.
Sequence of Casein kinase I isoform delta (Oryctolagus cuniculus, UniProt P81123) (P81123 whole entry, the tested form may be a part, canonical isoform): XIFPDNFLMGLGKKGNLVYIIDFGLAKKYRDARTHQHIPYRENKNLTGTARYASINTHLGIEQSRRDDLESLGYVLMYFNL
The target of experiment [10] is T2, Casein kinase I isoform delta. Description: Inhibition of GST-fused human full length CK1delta expressed in Escherichia coli at 25 uM.
Target sequence in this assay (P48730 whole entry, looked up, the tested form may be a part, canonical isoform): as the sequence (P48730 whole entry, the tested form may be a part, canonical isoform) above
The target of experiment [11] is T1, Casein kinase I isoform delta.
For experiment [12], the target named is T3, Mitogen-activated protein kinase 14. To be noted: 10 uM.
The target of experiment [13] is T2, Casein kinase I isoform delta. As to the kind of experiment: Inhibition of human CK1delta.
Target sequence in this assay (P48730 whole entry, the tested form may be a part, canonical isoform): as above

T1 sequence (Q06486 whole entry, the tested form may be a part, canonical isoform): as the sequence (P48730 whole entry, the tested form may be a part, canonical isoform) above, with I381V counted along it
T3 sequence (Q16539 whole entry): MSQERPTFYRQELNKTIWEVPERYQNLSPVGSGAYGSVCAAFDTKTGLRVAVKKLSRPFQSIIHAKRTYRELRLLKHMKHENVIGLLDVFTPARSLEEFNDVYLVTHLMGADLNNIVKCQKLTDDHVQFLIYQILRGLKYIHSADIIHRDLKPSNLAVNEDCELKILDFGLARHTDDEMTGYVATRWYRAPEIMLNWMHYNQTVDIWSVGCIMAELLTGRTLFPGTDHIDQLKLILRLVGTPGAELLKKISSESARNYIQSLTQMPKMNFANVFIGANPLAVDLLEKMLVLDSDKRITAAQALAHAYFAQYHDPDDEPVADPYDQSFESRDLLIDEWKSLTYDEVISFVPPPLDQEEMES

In the case of `CC(C)c1onc(-c2ccc(F)cc2)c1-c1ccnc(NC(=O)Cc2ccc(F)cc2)c1`, the IC50 came to 90 nM in experiment [1], 110 nM in [2] and 1560 nM in experiment [3].

Consider `CC(Oc1ccccc1)C(=O)Nc1cc(-c2c(-c3ccc(F)cc3)noc2C(C)C)ccn1` (racemic), for which the values for the IC50 in experiment [1], in [2] and in [3] were 340 nM, 820 nM and 890 nM, respectively.

As for `CCC(C)Nc1cc(-c2c(-c3ccc(F)cc3)noc2C(C)C)ccn1` (centres undefined), in experiment [3], it took 30 nM to reach half-maximal inhibition (IC50).

With `COc1ccc(/C=C/C(=O)Nc2cc(-c3c(-c4ccc(F)cc4)noc3C(C)C)ccn2)c(OC)c1`, the Activity was 14.8% in [4], 33% in experiment [5], 34.4% in experiment [6] and 14.8% in experiment [7]. In addition, the IC50 in experiment [1] was 47 nM; in experiment [2], 33 nM; in experiment [3], 2520 nM.

In [8], `Oc1ccc(-c2nc(-c3ccc(F)cc3)c(-c3ccncc3)[nH]2)cc1` showed an inhibition of 79%.

For `NCCNS(=O)(=O)c1ccc(Cl)c2ccncc12`, half-maximal inhibition in experiment [9] (IC50) was put at 10 µM. Further, the inhibition in experiment [10] turned out to be 88%.

`NC(=O)c1ccc(-c2nc(-c3ccc4c(c3)OCCO4)c(-c3ccccn3)[nH]2)cc1` showed an IC50 in experiment [11] of 300 nM. The inhibition in experiment [12] came to 62%.

As for `CC(C)c1onc(-c2ccc(F)cc2)c1-c1ccnc(N[C@@H](C)c2ccccc2)c1`, the IC50 in experiment [2] turned out to be 1600 nM; in experiment [3] it was 6 nM.

In the case of `CC(=O)Nc1cc(-c2c(-c3ccc(F)cc3)noc2C(C)C)ccn1`, the IC50 turned out to be 330 nM in [1], 700 nM in [2] and 300 nM in experiment [3].

As for `C[S+]([O-])c1ccc(-c2nc(-c3ccc(F)cc3)c(-c3ccncc3)[nH]2)cc1` (centres undefined), the inhibition in experiment [8] was 92%.

As to `CC(C)c1onc(-c2ccc(F)cc2)c1-c1ccnc(N[C@H](C)c2ccccc2)c1`, the IC50 in [3] came to 450 nM.

In the case of `CC(C)c1onc(-c2ccc(F)cc2)c1-c1ccnc(NC2CCOCC2)c1`, the IC50 amounted to 2500 nM in [2] and 60 nM in [3].

`COc1cc(OC)c(C=C2C(O)=Nc3ccccc32)c(OC)c1` [IC261] came in with an IC50 in [13] of 1000 nM.
